Laboratory results taken from PMC9886975, “Ligand recognition mechanism of the human relaxin family peptide receptor 4 (RXFP4)” (Nature Communications, 2023).
“And” between values parts separate entries of the source, which are not always exact repeats. Equal values may be shown once. Read-outs that look alike come from different tables or passages of the source.

Key:
[1] = target: T1, human RXFP4 (Homo sapiens, UniProt Q8TDU9); assay: competitive Eu-R3/I5 binding, RXFP4
T1 construct: expressed in transfected cells
Procedure: CHO-K1 cells stably transfected with RXFP3 or RXFP4 were plated onto pre-coated poly-L-lysine 96-well plates. The competitive binding assays were performed with 5 nM Eu-H3 B1-22R (RXFP3) or Eu-R3/I5 (RXFP4) in the presence of increasing amounts of ligands as previously described[21],[86],[87]. Time-resolved fluorescence measurements were carried out at an excitation wavelength of 340 nm and an emission wavelength of 614 nm on a BMG POLARstar plate reader (BMG Labtech, Melbourne, Australia). Binding was performed in at least three independent experiments with triplicate determinations within each assay. Data are presented as means ± S.E.M. of specific binding and were fitted using a one-site binding curve in Prism software (GraphPad).
(§1) All functional study data were analyzed using GraphPad Prism 8.3 (GraphPad Software) and presented as means ± S.E.M. from at least three independent experiments. Dose-response curves were evaluated with a three-parameter logistic equation. The significance was determined with either a two-tailed Student’s t-test or one-way ANOVA with Dunnett’s multiple comparison test, and P < 0.05 was considered statistically significant.

[2] = target: T1, human RXFP4; assay: inhibition of forskolin-induced cAMP accumulation, WT RXFP4 (hRXFP4-CHO); type: cell-based
Procedure: (§2) CHO-K1 (ATCC, Cat#CCL-61) cells stably expressing human RXFP4 (hRXFP4-CHO) or RXFP3 (hRXFP3-CHO) were maintained in DMEM/F12 (Gibco) supplemented with 10% (v/v) fetal bovine serum (FBS) and 2 mM L-glutamine. Human embryonic kidney 293 T cells containing SV40 large T-antigen (HEK293T, ATCC, Cat#64127316) were maintained in DMEM (Gibco) supplemented with 10% (v/v) FBS, 1 mM sodium pyruvate (Gibco), 100 units/mL penicillin and 100 μg/mL streptomycin at 37 °C in 5% CO2. For cAMP assays in mutants, HEK293T cells were seeded onto 6-well cell culture plates at a density of 7 × 10^5 cells per well. After overnight incubation, cells were transfected with WT or mutant receptors using Lipofectamine 3000 transfection reagent (Invitrogen). Following 24 h culturing, the transfected cells were ready for detection.
(§3) Ligands were verified for their bioactivity in the beginning in hRXFP4-CHO, which were ready for use after 24 h culturing. For assaying mutants, HEK293T cells were used 24 h post transfection. Cells were digested with 0.02% (w/v) EDTA and seeded onto 384-well microtiter plates at a density of 8 × 10^5 cells/mL in cAMP stimulation buffer [HBSS supplemented with 5 mM HEPES, 0.1% (w/v) bovine serum albumin (BSA) and 0.5 mM 3-isobutyl-1-methylxanthine]. The cells were stimulated with different concentrations of ligands plus 1.5 μM forskolin in RXFP4 and 4 μM forskolin in RXFP3. […] The time-resolved fluorescence resonance energy transfer (TR-FRET) signals were detected by an EnVision multilabel plate reader (PerkinElmer) with the emission window ratio of 665 nm over 620 nm under 320 nm excitation. […]
as §1

[3] = target: T2, RXFP4 WT (Homo sapiens, UniProt Q8TDU9); assay: cAMP accumulation, WT RXFP4 (HEK293T); type: cell-based; details: 1.5 μM forskolin, mean ± S.E.M.; for EC50: 40 min RT, TR-FRET, n = 6 to 8
T2 construct: RXFP4(1-374)-; expressed in transfected cells; host or cells: HEK293T, transient (pCMV6)
Excerpt: (§4) The full-length human RXFP4 (NCBI Reference Sequence: NM_181885.3) was cloned into a modified pFastBac vector (Invitrogen) with HA signal peptide to enhance receptor expression, followed by a 10× histidine tag and BRIL insertion at the N terminus. LgBiT subunit (Promega) was fused at the C terminus of RXFP4 connected by a 15-amino acid polypeptide linker. […] The engineered human Gαi2, Gβ1, bovine Gγ2, and scFv16 were cloned into the pFastBac vector (Invitrogen), respectively. For cAMP accumulation assay, human RXFP4 and RXFP3 (NCBI Reference Sequence: NM_016568.3) were cloned into pCMV6 constructs (OriGene Technologies). The mutant receptors were modified by site-directed mutagenesis in the setting of the WT constructs, with the primers designed by QuikChange Primer Design [QuickChange Primer Design (http://agilent.com.cn)] and carried out using Phanta Max Master (Vazyme). N-terminal Flag tag was added to both WT and mutant receptors for surface expression measurement. Sequences of all primers used in this study were provided in Supplementary Table 6, and all the constructs were confirmed by DNA sequencing.
as §2, with “After overnight incubation, cells were transfected with WT or mutant receptors using Lipofectamine 3000 transfection reagent (Invitrogen).” left out
(§5) Ligands were verified for their bioactivity in the beginning in hRXFP4-CHO, which were ready for use after 24 h culturing. […] The time-resolved fluorescence resonance energy transfer (TR-FRET) signals were detected by an EnVision multilabel plate reader (PerkinElmer) with the emission window ratio of 665 nm over 620 nm under 320 nm excitation. […]
(§6) Inhibition of forskolin-induced cAMP accumulation was performed in HEK293T cells transiently transfected with WT and mutant receptors. All the mutant constructs were modified by single-point mutation in the setting of the WT receptor. cAMP accumulation data were analyzed using a three-parameter logistic equation to determine pEC50 and Emax values. Emax values for mutants are defined as the window between the maximal response and vehicle control (no ligand) and expressed as a percentage of the WT. Cell surface expression was assessed by flow cytometry to detect the N-terminal Flag epitope label on the receptors and normalized to the WT receptor (shown as percentage). […]

[4] = target: T3, RXFP4 W97A (Homo sapiens, UniProt Q8TDU9, W97A); assay: cAMP accumulation, RXFP4 W97A; type: cell-based
T3 construct: RXFP4(1-374)-; expressed in transfected cells; host or cells: HEK293T, transient (pCMV6)
Excerpt: as §4, §2, §3, §6

[5] = target: T4, RXFP4 F105A (Homo sapiens, UniProt Q8TDU9, F105A); assay: cAMP accumulation, RXFP4 F105A; type: cell-based
T4 construct: RXFP4(1-374)-; expressed in transfected cells; host or cells: HEK293T, transient (pCMV6)
Excerpt: as §4, §2, §3, §6

[6] = target: T5, RXFP4 K273A (Homo sapiens, UniProt Q8TDU9, K273A); assay: cAMP accumulation, RXFP4 K273A; type: cell-based
T5 construct: RXFP4(1-374)-; expressed in transfected cells; host or cells: HEK293T, transient (pCMV6)
Excerpt: as §4
as §2, with “After overnight incubation, cells were transfected with WT or mutant receptors using Lipofectamine 3000 transfection reagent (Invitrogen).” left out
as §5, §6

[7] = target: T6, RXFP4 H299A (Homo sapiens, UniProt Q8TDU9, H299A); assay: cAMP accumulation, RXFP4 H299A; type: cell-based
T6 construct: RXFP4(1-374)-; expressed in transfected cells; host or cells: HEK293T, transient (pCMV6)
Excerpt: as §4, §2, §3, §6

[8] = target: T7, RXFP4 L118S+V122S (Homo sapiens, UniProt Q8TDU9, L118S/V122S); assay: cAMP accumulation, RXFP4 L118S+V122S; type: cell-based; details: HEK293T
T7 construct: RXFP4(1-374)-; expressed in transfected cells; host or cells: HEK293T, transient (pCMV6)
Excerpt: as §4
as §2, with “After overnight incubation, cells were transfected with WT or mutant receptors using Lipofectamine 3000 transfection reagent (Invitrogen).” left out
as §5, §6

[9] = target: T8, RXFP4 T295V (Homo sapiens, UniProt Q8TDU9, T295V); assay: cAMP accumulation, RXFP4 T295V; type: cell-based
T8 construct: RXFP4(1-374)-; expressed in transfected cells; host or cells: HEK293T, transient (pCMV6)
Excerpt: as §4
as §2, with “After overnight incubation, cells were transfected with WT or mutant receptors using Lipofectamine 3000 transfection reagent (Invitrogen).” left out
as §5, §6

[10] = HEK293T, 1.5 μM forskolin, mean ± S.E.M., n = 3, N.A., not active, read-out: pEC50 (converted)

T5 sequence (Q8TDU9 whole entry K273A): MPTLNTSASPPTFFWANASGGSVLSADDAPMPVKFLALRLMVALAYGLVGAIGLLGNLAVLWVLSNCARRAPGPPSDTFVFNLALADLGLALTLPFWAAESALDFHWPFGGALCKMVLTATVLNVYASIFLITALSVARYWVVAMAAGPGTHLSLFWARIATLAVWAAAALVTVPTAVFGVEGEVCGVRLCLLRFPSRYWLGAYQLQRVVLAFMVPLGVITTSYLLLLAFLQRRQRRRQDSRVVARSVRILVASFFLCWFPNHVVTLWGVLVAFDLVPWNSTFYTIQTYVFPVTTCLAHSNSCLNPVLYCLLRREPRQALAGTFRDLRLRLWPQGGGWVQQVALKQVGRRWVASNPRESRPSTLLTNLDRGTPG
T1 sequence (Q8TDU9 whole entry): as the sequence (Q8TDU9 whole entry K273A) above, with A273K counted along it
T2 sequence (Q8TDU9 whole entry): as the sequence (Q8TDU9 whole entry K273A) above, with A273K counted along it
T4 sequence (Q8TDU9 whole entry F105A): as the sequence (Q8TDU9 whole entry K273A) above, with F105A, A273K counted along it
T8 sequence (Q8TDU9 whole entry T295V): as the sequence (Q8TDU9 whole entry K273A) above, with A273K, T295V counted along it
T7 sequence (Q8TDU9 whole entry L118S/V122S): as the sequence (Q8TDU9 whole entry K273A) above, with L118S, V122S, A273K counted along it
T6 sequence (Q8TDU9 whole entry H299A): as the sequence (Q8TDU9 whole entry K273A) above, with A273K, H299A counted along it
T3 sequence (Q8TDU9 whole entry W97A): as the sequence (Q8TDU9 whole entry K273A) above, with W97A, A273K counted along it

For `CCOc1cc2c(cc1OC)CCN(C(=O)N1CCOCC1)[C@H]2CCc1c[nH]c2ccc(OC)cc12` [DC591053, (S)-(7-ethoxy-6-methoxy-1-(2-(5-methoxy-1H-indol-3-yl)ethyl)−3,4-dihydroisoquinolin-2(1H)-yl)(morpholino)methanone], the Ki ([1]; stably-transfected CHO-K1, 5 nM Eu-R3/I5, mean ± S.E.M., n = 3, read-out: pKi (converted)) was 112 nM, the “agonism” value ([2]; stably-transfected CHO-K1) was “full agonism” and the EC50 ([2]; stably-transfected CHO-K1, 1.5 μM forskolin, 40 min RT, TR-FRET, mean ± S.E.M., n = 3, read-out: pEC50 (converted)) was 57.5 nM. For the same compound, the EC50 ([3]; HEK293T, read-out: pEC50 (converted)) was 34.7 nM, the Emax ([3]; HEK293T) was 97.18 ± 3.11 % WT and the “decrease of potency vs WT” value ([4]; HEK293T) was 1.6 fold. The EC50 [4, 10] was 56.2 nM, the Emax ([4]; HEK293T, mean ± S.E.M.) was 108.65 ± 10.04 % WT and the “decrease of potency vs WT” value ([5]; HEK293T) was 4.9 fold. For the same compound, the EC50 ([5]; HEK293T, 1.5 μM forskolin, mean ± S.E.M., n = 3, read-out: pEC50 (converted)) was 170 nM, the Emax ([5]; HEK293T, mean ± S.E.M.) was 57.39 ± 4.17 % WT and the EC50 ([6]; HEK293T, 1.5 μM forskolin, mean ± S.E.M., n = 3 or 4, read-out: pEC50 (converted)) was 1860 nM. For the same compound, the Emax ([6]; HEK293T, mean ± S.E.M.) was 68.51 ± 8.34 % WT, the “reduction of Emax vs WT” value ([7]; HEK293T) was 65% and the EC50 [7, 10] was 3.63 nM. The Emax ([7]; HEK293T, mean ± S.E.M.) was 36.04 ± 4.01 % WT, the “decrease of potency vs WT” value [8] was 20.9 fold and the EC50 ([8]; 1.5 μM forskolin, mean ± S.E.M., n = 3, N.A., not active) was 724 nM. The Emax ([8]; mean ± S.E.M.) was 84.85 ± 8.36 % WT, the EC50 ([9]; HEK293T, 1.5 μM forskolin, mean ± S.E.M., n = 3 to 5, read-out: pEC50 (converted)) was 64.6 nM and the Emax ([9]; HEK293T, mean ± S.E.M.) was 30.00 ± 4.54 % WT.
In the case of `CC[C@H](C)[C@@H]1NC(=O)[C@H](Cc2ccc(O)cc2)NC(=O)[C@H]([C@@H](C)CC)NC(=O)[C@H](C(C)C)NC(=O)[C@H]([C@@H](C)O)NC(=O)[C@H](CCCNC(=N)N)NC(=O)[C@H]([C@@H](C)CC)NC(=O)[C@H](Cc2ccc(O)cc2)NC(=O)[C@H](CCC(=O)O)NC(=O)[C@H](CC(C)C)NC(=O)CNC(=O)[C@@H](NC(=O)[C@H](CC(C)C)NC(=O)[C@H](CCCNC(=N)N)NC(=O)[C@@H](NC(=O)[C@H](CO)NC(=O)[C@H](CCC(=O)O)NC(=O)[C@@H](N)CCCCN)C(C)C)CSSC[C@@H]2NC(=O)[C@@H](NC(=O)[C@H](CC(C)C)NC(=O)[C@@H](NC(=O)[C@H](CCC(N)=O)NC(=O)[C@H](CC(C)C)NC(=O)[C@H](CC(=O)O)NC(=O)[C@@H](N)CCC(N)=O)[C@@H](C)O)CSSC[C@H](NC(=O)CNC(=O)[C@H](CC(=O)O)NC(=O)[C@H]([C@@H](C)O)NC2=O)C(=O)N[C@@H](CO)C(=O)N[C@@H](CCSC)C(=O)N[C@@H]([C@@H](C)O)C(=O)N[C@@H](CC(=O)O)C(=O)N[C@@H](CC(C)C)C(=O)N[C@@H](CO)C(=O)N[C@@H](C)C(=O)N[C@@H](CC(C)C)C(=O)N[C@H](C(=O)O)CSSC[C@@H](C(=O)N[C@@H](C)C(=O)N[C@@H](CO)C(=O)N[C@@H](CO)C(=O)N[C@@H](CCCNC(=N)N)C(=O)N[C@@H](Cc2c[nH]c3ccccc23)C(=O)O)NC1=O` [INSL5, insulin-like peptide 5], the Ki [1] is reported as 6.46 nM, the EC50 [2] is reported as 1.58 nM and the Emax ([3]; HEK293T) is reported as 99.88 ± 2.28 % WT and 98.86 ± 3.65 % WT. For the same compound, the EC50 ([3]; pEC50, HEK293T) was 0.759 nM and 0.955 nM, the EC50 [4] was 15.5 nM and the Emax ([4]; HEK293T, mean ± S.E.M.) was 61.33 ± 5.34 % WT. For the same compound, the EC50 [5] was 10 nM, the Emax ([5]; HEK293T, mean ± S.E.M.) was 80.16 ± 4.08 % WT and the EC50 [6] was 3.55 nM. It also gave an Emax ([6]; HEK293T, mean ± S.E.M.) of 58.10 ± 7.38 % WT, an EC50 [7] of 0.955 nM and an Emax ([7]; HEK293T, mean ± S.E.M.) of 30.77 ± 3.77 % WT. The “response” value [8] was “inactive”, the EC50 [9] was 0.692 nM and the Emax ([9]; HEK293T, mean ± S.E.M.) was 91.17 ± 6.47 % WT.
